SMILES strings stand for the structures.

The target in assay [1] is T1, human recombinant HDAC1 (Homo sapiens, UniProt Q13547).
T1 construct: purchased Enzo Life Science BML-SE456
Briefly: HDAC1 enzyme activity inhibition assay (HDAC Fluorimetric Drug Discovery Kit). It counts as biochemical. To be noted: 0.3 μg enzyme, 10 μM substrate, 30° C., 60 minutes. As to the method: In order to examine the HDAC6 selectivity of the compounds of formula I of the present invention by HDAC1 and HDAC6 enzymatic activity inhibition assays, an experiment was performed using a conventional substance as a control.
HDAC enzyme activity was measured using a HDAC Fluorimetric Drug Discovery Kit (BML-AK511, 516, Enzo Life Science). For the HDAC1 enzyme activity test, human recombinant HDAC1 (BML-SE456) was used as an enzyme source, and Fluor de Lys®-“SIRT1 (BNL-KI177) was used as a substrate. A 5-fold dilution of the compound was seeded into a 96-well plate, and then 0.3 μg of the enzyme and 10 μM of the substrate were added to each well of the plate and allowed to react at 30° C. for 60 minutes. Then, Fluor de Lys®-Developer II (BML-KI176) was added thereto and allowed to react for 30 minutes, after which the fluorescence value (Ex 360, Em 460) was measured using a multi-plate reader (Flexstation 3, Molecular Device). The HDAC6 enzyme was tested using human recombinant HDAC6 (382180) (Calbiochem) according to the same protocol as the HDAC1 enzyme activity test method. Based on the resulting values, each IC50 value was calculated using GraphPad Prism4.0 program.

The target in assay [2] is T2, human recombinant HDAC6 (Homo sapiens, UniProt Q9UBN7).
T2 construct: purchased Calbiochem 382180
T2 sequence (Q9UBN7 1-1215): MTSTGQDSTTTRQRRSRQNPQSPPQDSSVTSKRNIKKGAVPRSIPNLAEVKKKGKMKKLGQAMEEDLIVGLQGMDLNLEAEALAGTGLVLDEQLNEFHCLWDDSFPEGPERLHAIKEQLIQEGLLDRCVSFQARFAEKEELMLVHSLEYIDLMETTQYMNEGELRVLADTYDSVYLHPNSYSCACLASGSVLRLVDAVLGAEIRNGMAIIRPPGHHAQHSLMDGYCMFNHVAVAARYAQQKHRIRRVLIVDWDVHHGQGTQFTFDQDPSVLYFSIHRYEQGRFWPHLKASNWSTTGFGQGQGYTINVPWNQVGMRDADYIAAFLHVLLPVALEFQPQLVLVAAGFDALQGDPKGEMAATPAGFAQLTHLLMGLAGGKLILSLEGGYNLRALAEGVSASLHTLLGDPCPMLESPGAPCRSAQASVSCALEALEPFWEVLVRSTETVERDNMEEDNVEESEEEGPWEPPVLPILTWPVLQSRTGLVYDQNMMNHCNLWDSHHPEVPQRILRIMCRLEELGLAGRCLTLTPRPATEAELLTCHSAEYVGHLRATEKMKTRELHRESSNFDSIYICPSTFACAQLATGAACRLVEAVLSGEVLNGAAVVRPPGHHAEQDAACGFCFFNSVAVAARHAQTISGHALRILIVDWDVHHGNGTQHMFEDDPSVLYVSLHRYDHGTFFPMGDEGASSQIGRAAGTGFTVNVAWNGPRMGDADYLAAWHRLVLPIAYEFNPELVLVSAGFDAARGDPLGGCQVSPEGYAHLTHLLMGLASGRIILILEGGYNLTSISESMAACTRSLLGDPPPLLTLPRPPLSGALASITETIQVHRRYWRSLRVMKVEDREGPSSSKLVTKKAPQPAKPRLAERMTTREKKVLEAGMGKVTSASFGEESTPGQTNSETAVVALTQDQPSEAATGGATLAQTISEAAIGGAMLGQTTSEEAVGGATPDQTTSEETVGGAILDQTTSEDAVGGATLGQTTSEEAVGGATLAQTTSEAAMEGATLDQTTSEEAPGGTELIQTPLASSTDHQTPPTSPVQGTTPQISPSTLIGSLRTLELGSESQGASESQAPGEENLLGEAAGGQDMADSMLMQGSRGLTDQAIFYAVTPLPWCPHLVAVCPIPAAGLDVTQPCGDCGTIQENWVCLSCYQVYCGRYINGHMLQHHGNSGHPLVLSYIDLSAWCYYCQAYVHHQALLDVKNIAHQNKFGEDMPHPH
Description: HDAC6 enzyme activity inhibition assay (HDAC Fluorimetric Drug Discovery Kit). The conditions noted are these: for HDAC6 selectivity (fold): HDAC1 vs HDAC6; for IC50: same protocol as the HDAC1 enzyme activity test. It counts as biochemical. The procedure, abridged: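 IC50s derived from fluorescence (Ex 360, Em 460) read after a 30-min developer step. Beforehand, compounds in 5-fold dilution series reacted 60 min at 30° C with 0.3 μg human recombinant enzyme and 10 μM Fluor de Lys-SIRT1 substrate.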

T1 sequence (Q13547 whole entry): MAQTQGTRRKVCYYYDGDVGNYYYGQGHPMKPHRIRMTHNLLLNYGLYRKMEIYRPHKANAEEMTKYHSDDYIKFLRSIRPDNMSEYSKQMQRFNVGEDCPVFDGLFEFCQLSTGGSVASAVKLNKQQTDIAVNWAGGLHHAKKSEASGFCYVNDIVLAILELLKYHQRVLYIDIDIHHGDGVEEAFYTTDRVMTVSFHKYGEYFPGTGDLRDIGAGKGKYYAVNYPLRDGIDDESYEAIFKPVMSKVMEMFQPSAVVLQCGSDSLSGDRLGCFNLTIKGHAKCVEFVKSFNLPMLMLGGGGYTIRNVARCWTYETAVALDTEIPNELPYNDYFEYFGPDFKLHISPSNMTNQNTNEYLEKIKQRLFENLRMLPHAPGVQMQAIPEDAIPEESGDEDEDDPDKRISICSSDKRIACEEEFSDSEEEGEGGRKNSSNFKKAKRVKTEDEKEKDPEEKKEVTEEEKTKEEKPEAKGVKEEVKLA

Turning to `CS(=O)(=O)N(Cc1ccc(-c2nnc(C(F)(F)F)o2)cc1)c1cccnc1` [Compound 11088, N-(pyridin-3-yl)-N-(4-(5-(trifluoromethyl)-1,3,4-oxadiazol-2-yl)benzyl)methanesulfonamide], the IC50 in assay [1] came to 51400 nM. Further, in assay [2], the “HDAC6 selectivity (fold)” value amounted to 404 fold and the IC50 was found to be 127 nM.

For `CS(=O)(=O)N(Cc1ccc(-c2nnc(C(F)(F)F)o2)cc1F)c1cccnc1` [Compound 11089, N-(2-fluoro-4-(5-(trifluoromethyl)-1,3,4-oxadiazol-2-yl)benzyl)-N-(pyridin-3-yl)methanesulfonamide], the IC50 in assay [1] was 47900 nM; in assay [2], 50 nM. Also, the “HDAC6 selectivity (fold)” value in assay [2] was 957 fold.

Take `CS(=O)(=O)N(Cc1ccc(-c2nnc(C(F)(F)F)o2)cc1)c1ccccc1` [Compound 11167, N-phenyl-N-(4-(5-(trifluoromethyl)-1,3,4-oxadiazol-2-yl)benzyl)methanesulfonamide]: the IC50 in assay [1] is 34200 nM; in assay [2] it was 38 nM. The “HDAC6 selectivity (fold)” value in assay [2] is listed as 900 fold.

For the compound `CS(=O)(=O)N(Cc1ccc(-c2nnc(C(F)(F)F)o2)cc1F)c1ccccc1` [Compound 11169, N-(2-fluoro-4-(5-(trifluoromethyl)-1,3,4-oxadiazol-2-yl)benzyl)-N-phenylmethanesulfonamide], the IC50 in assay [1] amounted to 41100 nM. For the same compound, in assay [2], the “HDAC6 selectivity (fold)” value was determined as 1081 fold and the IC50 amounted to 38 nM.

Turning to `CS(=O)(=O)N(Cc1ccc(-c2nnc(C(F)(F)F)o2)cn1)c1ccccc1` [Compound 11171, N-phenyl-N-((5-(5-(trifluoromethyl)-1,3,4-oxadiazol-2-yl)pyridin-2-yl)methyl)methanesulfonamide], the IC50 in assay [1] is 26600 nM. For the same compound, in assay [2], the “HDAC6 selectivity (fold)” value is given as 1267 fold and the IC50 is 21 nM.

With `CS(=O)(=O)N(Cc1ccc(-c2nnc(C(F)(F)F)o2)nc1)c1ccccc1` [Compound 11173, N-phenyl-N-((6-(5-(trifluoromethyl)-1,3,4-oxadiazol-2-yl)pyridin-3-yl)methyl)methanesulfonamide], the results for the IC50 in assay [1] and in assay [2] were 28600 nM and 661 nM, respectively. In assay [2], the “HDAC6 selectivity (fold)” value is 43 fold.

`Cc1cccc(N(Cc2ccc(-c3nnc(C(F)(F)F)o3)cc2F)S(C)(=O)=O)c1` [Compound 11177, N-(2-fluoro-4-(5-(trifluoromethyl)-1,3,4-oxadiazol-2-yl)benzyl)-N-(m-tolyl)methanesulfonamide]: the IC50 in assay [1] worked out at 18900 nM. In assay [2], the “HDAC6 selectivity (fold)” value came out at 332 fold and the IC50 is 57 nM.

For `COc1cccc(N(Cc2ccc(-c3nnc(C(F)(F)F)o3)cc2F)S(C)(=O)=O)c1` [Compound 11179, N-(2-fluoro-4-(5-(trifluoromethyl)-1,3,4-oxadiazol-2-yl)benzyl)-N-(3-methoxyphenyl)methanesulfonamide], the IC50 in assay [1] turned out to be 7810 nM. In assay [2], the “HDAC6 selectivity (fold)” value is recorded as 211 fold and the IC50 turned out to be 37 nM.

Consider `Cc1cccc(N(Cc2ccc(-c3nnc(C(F)F)o3)cn2)S(=O)(=O)C2CCN(C3CN(C(C)C)C3)CC2)c1` [Compound 11837, N-((5-(5-(difluoromethyl)-1,3,4-oxadiazol-2-yl)pyridin-2-yl)methyl)-1-(1-isopropylazetidin-3-yl)-N-(m-tolyl)piperidine-4-sulfonamide], for which, in assay [2], the “HDAC6 selectivity (fold)” value came to 4167 fold and the IC50 came to 24 nM.

Take `CC(=O)N1CC(N2CCC(S(=O)(=O)N(Cc3ccc(-c4nnc(C(F)F)o4)cn3)c3cccc(C)c3)CC2)C1` [Compound 11838, 1-(1-acetylazetidin-3-yl)-N-((5-(5-(difluoromethyl)-1,3,4-oxadiazol-2-yl)pyridin-2-yl)methyl)-N-(m-tolyl)piperidine-4-sulfonamide]: in assay [2], the “HDAC6 selectivity (fold)” value was found to be 2241 fold and the IC50 was 44.6 nM.

`Cc1cccc(N(Cc2ccc(-c3nnc(C(F)F)o3)cn2)S(=O)(=O)C2CCN(C3CN(C(=O)CO)C3)CC2)c1` [Compound 11839, N-((5-(5-(difluoromethyl)-1,3,4-oxadiazol-2-yl)pyridin-2-yl)methyl)-1-(1-(2-hydroxyacetyl)azetidin-3-yl)-N-(m-tolyl)piperidine-4-sulfonamide]: in assay [2], the “HDAC6 selectivity (fold)” value came to 2236 fold and the IC50 worked out at 44.7 nM.

As for `O=S(=O)(C1CCN(C2CC(F)C2)CC1)N(Cc1ccc(-c2nnc(C(F)F)o2)cc1)c1cccc(Cl)c1` (centres unmarked) [Compound 11840, N-(3-chlorophenyl)-N-(4-(5-(difluoromethyl)-1,3,4-oxadiazol-2-yl)benzyl)-1-(3-fluorocyclobutyl)piperidine-4-sulfonamide], in assay [2], the “HDAC6 selectivity (fold)” value is listed as 520 fold and the IC50 amounted to 192 nM.

As to `O=S(=O)(C1CCN(C2CC(F)C2)CC1)N(Cc1ccc(-c2nnc(C(F)F)o2)cn1)c1cccc(Cl)c1` (centres unmarked) [Compound 11841, N-(3-chlorophenyl)-N-((5-(5-(difluoromethyl)-1,3,4-oxadiazol-2-yl)pyridin-2-yl)methyl)-1-(3-fluorocyclobutyl)piperidine-4-sulfonamide], in assay [2], the “HDAC6 selectivity (fold)” value worked out at 2790 fold and the IC50 was 35.8 nM.

As for `O=S(=O)(CCN1CC=C(c2ccc(Cl)cc2)CC1)N(Cc1ccc(-c2nnc(C(F)F)o2)cc1)c1ccccc1` [Compound 11842, 2-(4-(4-chlorophenyl)-3,6-dihydropyridin-1(2H)-yl)-N-(4-(5-(difluoromethyl)-1,3,4-oxadiazol-2-yl)benzyl)-N-phenylethane-1-sulfonamide], in assay [2], the “HDAC6 selectivity (fold)” value is 121 fold and the IC50 was 826 nM.

Regarding `O=S(=O)(CCN1Cc2cccc3cccc(c23)C1)N(Cc1ccc(-c2nnc(C(F)F)o2)cc1)c1ccccc1` [Compound 11843, 2-(1H-benzo[de]isoquinolin-2(3H)-yl)-N-(4-(5-(difluoromethyl)-1,3,4-oxadiazol-2-yl)benzyl)-N-phenylethane-1-sulfonamide], in assay [2], the “HDAC6 selectivity (fold)” value is 101 fold and the IC50 was found to be 994 nM.

As for `O=S(=O)(CCN1CCN(c2noc3ccccc23)CC1)N(Cc1ccc(-c2nnc(C(F)F)o2)cc1)c1ccccc1` [Compound 11844, 2-(4-(benzo[d]isoxazol-3-yl)piperazin-1-yl)-N-(4-(5-(difluoromethyl)-1,3,4-oxadiazol-2-yl)benzyl)-N-phenylethane-1-sulfonamide], in assay [2], the “HDAC6 selectivity (fold)” value was 172 fold and the IC50 stood at 581 nM.

For the compound `COc1ccccc1C1CCN(CCS(=O)(=O)N(Cc2ccc(-c3nnc(C(F)F)o3)cc2)c2ccccc2)CC1` [Compound 11845, N-(4-(5-(difluoromethyl)-1,3,4-oxadiazol-2-yl)benzyl)-2-(4-(2-methoxyphenyl)piperidin-1-yl)-N-phenylethane-1-sulfonamide], in assay [2], the “HDAC6 selectivity (fold)” value worked out at 103 fold and the IC50 came out at 973 nM.

Consider `NC(=O)[C@@H]1C[C@@H](O)CN1CCS(=O)(=O)N(Cc1ccc(-c2nnc(C(F)F)o2)cn1)c1ccccc1` [Compound 11849, (2S,4R)-1-(2-(N-((5-(5-(difluoromethyl)-1,3,4-oxadiazol-2-yl)pyridin-2-yl)methyl)-N-phenylsulfamoyl)ethyl)-4-hydroxypyrrolidine-2-carboxamide], for which, in assay [2], the “HDAC6 selectivity (fold)” value was 1605 fold and the IC50 is 62.3 nM.

Broadly, the IC50 is the concentration that inhibits the measured activity by half.

(Values after patent publication US10538498B2, “1,3,4-oxadiazole sulfonamide derivative compounds as histone deacetylase 6 inhibitor, and the pharmaceutical composition comprising the same” (Chong Kun Dang Pharmaceutical Corp., priority 2015, dated 2020).)
